“And” between values parts separate entries of the source, which are not always exact repeats. Equal entries are not always repeated. “Also recorded” adds a separate entry of the source. Bridges are numbered along the chain shown (N, C = ends). Where no end group is shown, it is not given here. [ ]: non-standard residue; d: D form. Cit = NC(=O)NCCC[C@H](N)C(=O)O
Columns and labels:
[1] = Disease activity score DAS28 (CRP and ESR) in treated RA patients; assay type: in vivo, human; settings: 6, 18 and 52 weeks post treatment; MTX n=13, MTX+INF n=11
From the text: (§1) Serum samples were obtained with informed consent and ethical approval from 102 patients with RA and 92 (or 110 patients for the results generally shown in FIGS. 9 to 16) patients with other arthritidies (including systemic lupus erythematosus (n=32), Sjogrens syndrome (n=31), psoriatic arthritis (n=5), Behçet's syndrome (n=18; FIGS. 9 to 16) and miscellaneous other rheumatic diseases (n=24). 92 control serum samples were obtained from healthy volunteers. An additional cohort of 24 patients with RA undergoing treatment with either methotrexate (MTX) alone (n=13) or methotrexate in combination with Infliximab (INF) (n=11) were collected before treatment as well as 6, 18 and 52 weeks post treatment. Disease activity score (DAS 28), erythrocyte sedimentation rate (ESR) and C-reactive protein (CRP) were measured for each patient at the same time points, i.e. 0, 6, 18 an 52 weeks post treatment. All patients attended the Rheumatology Clinic at Charing Cross Hospital, London. An independent cohort from the US included serum samples from 81 RA patients, taken at baseline in a clinical trial at the Omaha Veterans Affairs Medical Centre, University of Nebraska, USA, and 82 serum samples from healthy volunteers. All RA patients met the American College of Rheumatology (ACR) classification criteria (43).

[2] = test system: anti-Peptide 1A and anti-CCP antibodies in serum; test: Serology over time in 24 RA patients treated with MTX or MTX+INF; assay type: binding, human
From the text: as §1, with “All patients attended the Rheumatology Clinic at Charing Cross Hospital, London. An independent cohort from the US included serum samples from 81 RA patients, taken at baseline in a clinical trial at the Omaha Veterans Affairs Medical Centre, University of Nebraska, USA, and 82 serum samples from healthy volunteers. All RA patients met the American College of Rheumatology (ACR) classification criteria (43).” left out
96-well plates (Maxisorp; Nunc, Roskilde, Denmark) were coated with α-enolase peptides at 10 μg/ml (diluted in a 50 mM carbonate buffer, pH 9.6), or with carbonate buffer alone, and incubated over night at 4° C. […] After a final wash (PBS-Tween, 0.05%), bound antibodies were detected with TMB substrate (KPL, Maryland, USA). The reaction was stopped by the addition of 1M H2SO4 and absorbance measured at 450 nm in a Multiscan Ascent microplate reader (Thermo Labsystems). […]

[3] = test system: serum antibodies of SLE patients; test: ELISA of SLE patient sera on α-enolase peptides (Example 2); assay type: binding, human; settings: 29 SLE patients; OD450 below 0.1 negative
Experimental: Sera from 29 patients diagnosed with systemic lupus erythromatosus (SLE) were tested by ELISA for reactivity with 11 citrullinated α-enolase peptides, namely Peptide 1A, 1B, 1D and Peptides 2 to 9 as shown in Table 1. The ELISA assay was as described in Example 1.
The quantity of antibody, from each patient sample, binding to each peptide, is reflected by the OD (450 nm) in the ELISA assay. The OD (450 nm) corresponding to the background (buffer only) was subtracted. The results, after subtraction of background, are depicted in FIG. 8A. All OD (450 nm) values below 0.1 were considered negative (=0).

[4] = test system: anti-CEP-1 antibodies in anti-CEP-1 positive RA sera; test: Liquid phase inhibition of binding to CEP-1-coated plates; parameters: species or system human; settings: six anti-CEP-1 positive RA sera pre-incubated with 0, 1, 10 and 100 μg/ml peptide
Experimental: Inhibition experiments were performed in liquid phase on six anti-CEP-1 positive RA serum samples or on solid phase using serum from nine double positive (anti-CEP-1 and CCP positive) RA patients. Sera were either pre-incubated for 2 hours in RIA-buffer containing increasing concentrations (0, 1, 10 and 100 μg/ml) of CEP-1, control peptide 1D, peptide 4, peptide 7, peptide 9 or peptide 11, or pre-absorbed on plates coated with CEP-1, carbonate buffer alone or pre-absorbed on commercial CCP2 plates. To eliminate antigen-antibody complexes, the liquid phase mixtures were centrifuged at 13 000 rpm, for 15 minutes, before the supernatants were transferred to CEP-1-coated plates and assessed as described above Inhibition of binding to CEP-1, for serum samples pre-absorbed to CCP, was calculated in relation to the maximum inhibition, which by definition was set to 100% for samples pre-incubated with CEP-1.

[5] = test system: serum IgG of RA patients, disease controls and healthy controls; test: ELISA for IgG antibodies to cyclic α-enolase peptides, UK cohort sera; assay type: binding, human; settings: for % positive, RA (n = 102): UK cohort RA sera; for % positive, RA (n = 102) / % positive, Disease controls (n = 110) / % positive, Healthy controls (n = 92): cut-off OD450 = 0.1
From the text: as §1
Fifteen cyclic 15 to 23-mer peptides were synthesised at Cambridge Research Biochemicals (Cleveland, UK). The peptide sequences corresponded to amino acid sequences in human α-enolase (SwissProt accession number P06733) or P. gingivalis enolase (SwissProt accession number AAQ66821), with the addition of cysteine residues at the amino- and carboxy-termini and the exchange of citrulline for arginine residues at certain positions, as shown in Tablet and Table 2 below.
(§2) 96-well plates (Maxisorp; Nunc, Roskilde, Denmark) were coated with α-enolase peptides at 10 μg/ml (diluted in a 50 mM carbonate buffer, pH 9.6), or with carbonate buffer alone, and incubated over night at 4° C. Wells were washed with PBS-Tween (0.05%) and blocked with 2% BSA (diluted in PBS) for 3 hours at room temperature. Sera were diluted 1:50 in RIA-buffer (10 mM Tris, 1% BSA, 350 mM NaCl, 1% Triton-X, 0.5% Na-deoxychlate, 0.1% SDS) supplemented with 10% FCS, added in duplicates and incubated for 1.5 hour at room temperature. Plates were washed as described above and incubated with peroxidase-conjugated mouse anti-human IgG (Hybridoma Reagent Laboratory, Baltimore, USA) (diluted 1:1000 in RIA-buffer, 10% FCS) for 1 hour at room temperature. After a final wash (PBS-Tween, 0.05%), bound antibodies were detected with TMB substrate (KPL, Maryland, USA). The reaction was stopped by the addition of 1M H2SO4 and absorbance measured at 450 nm in a Multiscan Ascent microplate reader (Thermo Labsystems). A control serum was included on all plates to correct for plate-to-plate variation. Background OD450 (wells coated with only carbonate buffer) was subtracted from peptide OD450 for every serum tested. Values above 0.1 were taken as positive. ELISA on the US serum samples were performed in a similar manner, but with 2% BSA in carbonate buffer as background, and with an OD cut-off of 0.2 for positive samples. Anti-CCP antibody status was analysed using the CCP2 kit (Eurodiagnostica, Malmo, Sweden), according to the manufacturer's instructions.

[6] = test system: serum antibodies of RA patients and healthy controls grouped by CCP status; test: ELISA for reactivity with CEP-1, Swedish EIRA cohort (Example 3); assay type: binding, human
Experimental: Sera from healthy controls and 511 rheumatoid arthritis patients from the Swedish EIRA (Epidemiological Investigation of Rheumatoid Arthritis) cohort (Stolt et al, Quantification of the influence of cigarette smoking on RA, Ann Rheum Dis, 2003; 62:835-841), were tested for antibodies to cyclic citrullinated peptides using the commercially available anti-CCP ELISA. At least 600 healthy controls were screened and, amongst these, a rare population that were CCP positive (n=16) were identified. Two of these CCP positive individuals have developed RA since the blood samples were collected.
Sera from the 511 rheumatoid arthritis patients, 16 CCP positive healthy controls and 126 CCP negative healthy controls were also screened by ELISA for reactivity with CEP-1 (Peptide 1A) as described in Example 1. The rheumatoid arthritis patients were divided into CCP positive (n=410) and CCP negative (n=101) groups.

[7] = test system: serum IgG of RA patients and healthy controls (US cohort); test: anti-CEP-1 antibody ELISA, independent US cohort; assay type: binding, human
From the text: as §1
as §2, with “ELISA on the US serum samples were performed in a similar manner, but with 2% BSA in carbonate buffer as background, and with an OD cut-off of 0.2 for positive samples.” left out, “instructions. […]” for “instructions.”

[8] = test system: serum antibodies of RA patients and healthy controls; settings: seven patients; cited from earlier work
[9] = cut-off 98th percentile of controls

## CN(Cc1cnc2nc(N)nc(N)c2n1)c1ccc(C(=O)N[C@@H](CCC(=O)O)C(=O)O)cc1 [MTX, methotrexate]
[1]
  DAS28 (CRP and ESR) change: did not result in such statistically significant decrease; also recorded: did not change significantly
[2]; pre-treatment, 6, 18 and 52 weeks, not statistically significant
  anti-Peptide 1A antibody levels over time: increased

## cangwgvmvsh-X-sgetedtc (CANGWGVMVSH[Cit]SGETEDTC; disulfide 1-20 (inferred); listed as Homo sapiens) [Peptide 7, human α-enolase aa 362-379]
[3]
  % of SLE sera scored positive: 3.4%
[4]
  inhibition of antibody binding to CEP-1-coated plates: no inhibition
[4]; listed as peptide 7
  inhibition of antibody binding to CEP-1-coated plates: did not result in decreased antibody binding
[5]
  % positive, RA (n = 102): 4%
[5]; UK cohort
  % positive, Disease controls (n = 110): 2%
  % positive, Healthy controls (n = 92): 2%

## cf-X-sgkydldfkspddps-X-yc (CF[Cit]SGKYDLDFKSPDDPS[Cit]YC; disulfide 1-21 (inferred); listed as Homo sapiens) [Peptide 6, human α-enolase aa 252-270]
[3]
  % of SLE sera scored positive: 3.4%
[5]
  % positive, RA (n = 102): 12%
[5]; UK cohort
  % positive, Disease controls (n = 110): 5%
  % positive, Healthy controls (n = 92): 0%

## ckiha-X-eifds-X-gnptvec (CKIHA[Cit]EIFDS[Cit]GNPTVEC; disulfide 1-19 (inferred); listed as Homo sapiens) [Peptide 1A]
[4]
  inhibition of antibody binding to CEP-1-coated plates: dose dependent decrease; also recorded: dose-dependent inhibition
[6]; Swedish EIRA cohort
  % positive for anti-CEP-1 antibodies, CCP+ RA (n=410): Sixty
  % positive for anti-CEP-1 antibodies, CCP− RA (n=101): 17%
[6]; Swedish cohort
  % positive for anti-CEP-1 antibodies, CCP+ healthy controls (n=16): 25%
  % positive for anti-CEP-1 antibodies, CCP− healthy controls (n=126): 0.8%
[2]; 24 RA patients, nine positive in each treatment group
  sensitivity at start of study: 75%
[7]; 82 healthy controls, no disease controls
  specificity, US cohort: 98%
[7]; [9]
  % RA patients positive / sensitivity, US cohort (n=81): 62%
  % healthy controls positive, US cohort (n=82): 2%
[5]; UK and US cohorts together
  % of healthy controls reactive: 2%
[5]
  % positive, RA (n = 102): 37.3%
[5]; listed as 1A(CEP-1)
  % positive, RA (n = 102): 37%
[5]; UK cohort, anti-CCP negative RA sera
  % of anti-CCP negative RA patients positive: 23%
[5]; UK cohort, smaller disease control group
  % positive, non-RA patient controls (n=92): 4.3%
[5]; UK cohort
  % positive, Disease controls (n = 110): 3%
  % positive, Healthy controls (n = 92): 2.2% and 2%
[5]; UK cohort, listed as 1A(CEP-1)
  % positive, Healthy controls (n = 92): 2%
[5]; UK cohort, disease controls (92 or 110) and 92 healthy controls
  specificity for RA: 97%
[5]; UK disease controls
  anti-CEP-1 antibody status of patients with SLE and Behçet's disease: uniformly negative
[5]; summary statement
  % of individuals without rheumatoid arthritis scored positive: about 3% and ~2%

## non-citrullinated protein: whole non-citrullinated α-enolase protein
[8]
  % of RA patients also recognizing the non-citrullinated protein: 13%

From patent publication US9334487B2, “Methods for diagnosing rheumatoid arthritis” (Imperial Innovations Limited, priority 2007, dated 2016)
